Experimental data: the C3SDB collision cross section collection

How the values were obtained:
[1] = [M+H]+; instrument: TW; Major Mix IMS/Tof Calibration Kit (Waters)
[2] = instrument: DT, stepped-field

Structure (SMILES)	collision cross section (N2) [1] [Å²]	further results
COc1cc(CCN)c(OC)cc1I [2C-I]	157.7	–
COc1ccc2[nH]cc(CCN(C)C)c2c1 [5-MeO-DMT]	150.3	–
CCN(CC)CCc1c[nH]c2ccccc12 ["NN-Diethyltryptamine"]	148.6	–
CN(C)CCc1c[nH]c2ccccc12 ["NN-Dimethyltryptamine"]	143.5	–
Cc1ccc(/C(=C\CN2CCCC2)c2cccc(/C=C/C(=O)O)n2)cc1 [Acrivastine]	193.9	–
COc1cc2nc(N(C)CCCNC(=O)C3CCCO3)nc(N)c2cc1OC (centres undefined) [Alfuzosin]	194.6	–
OCc1nnc2n1-c1ccc(Cl)cc1C(c1ccccc1)=NC2 [Alprazolam-M alpha-Hydroxy]	173.3	–
C=CCc1ccccc1OCC(O)CNC(C)C (centres undefined) [Alprenolol]	159.5	–
CCCCc1oc2ccccc2c1C(=O)c1cc(I)c(OCCN(CC)CC)c(I)c1 [Amiodarone]	226.4	–
CN(C)CC/C=C1\c2ccccc2CC(O)c2ccccc21 (centres undefined) [Amitriptylin-M (E)-10-hydroxy]	167.6	–
CN(C)CCC=C1c2ccccc2CCc2ccccc21 [Amitriptyline]	167.2	–
CCOC(=O)C1=C(COCCN)NC(C)=C(C(=O)OC)C1c1ccccc1Cl (centres undefined) [Amlodipine]	188	–
Clc1ccc2c(c1)C(N1CCNCC1)=Nc1ccccc1O2 [Amoxapine]	170.2	–
NCC(CC(=O)O)c1ccc(Cl)cc1 (centres undefined) [Baclofen]	149.2	–
C[C@@H](Cc1ccccc1)N(C)Cc1ccccc1 [Benzphetamine]	154.8	–
CN1[C@@H]2CC[C@H]1C[C@@H](OC(c1ccccc1)c1ccccc1)C2 [Benztropine]	180.8	–
CC(C)NCC(O)COc1ccc(COCCOC(C)C)cc1 (centres undefined) [Bisoprolol]	192.2	–
CCC(NC)C(=O)c1ccc2c(c1)OCO2 (centres undefined) [Butylone]	151	–
CCC(Br)(CC)C(=O)NC(N)=O [Carbromal]	139.8	–
Clc1ccc(C(c2ccccc2)N2CCNCC2)cc1 (centres undefined) [Cetirizine-M N-desalkyl]	168.4	–
CCN(CC)CCCC(C)Nc1ccnc2cc(Cl)ccc12 (centres undefined) [Chloroquine]	176.8	–

Structure (SMILES)	collision cross section (N2) [1] [Å²]	further results
CN(C)CC/C=C1/c2ccccc2Sc2ccc(Cl)cc21 [Chlorprothixene]	170.1	–
C(=C\c1ccccc1)/CN1CCN(C(c2ccccc2)c2ccccc2)CC1 [Cinnarizine]	206.2	–
CNCCC[C@@]1(c2ccc(F)cc2)OCc2cc(C#N)ccc21 [Citalopram-M N-desmethyl]	178.7	–
Clc1cccc(Cl)c1NC1=NCCN1 [Clonidine]	144	–
Clc1ccc2c(c1)N=C(N1CCNCC1)c1ccccc1N2 [Clozapine-M nor]	173.8	–
Clc1ccc2c(c1)CCc1cccnc1C2=C1CCNCC1 [Desloratadine]	175.5	–
CN(C)CC(c1ccc(O)cc1)C1(O)CCCCC1 (centres undefined) [Desvenlafaxine]	166.7	–
Cc1cccc(Cc2cnc[nH]2)c1C [Detomidine]	146.8	–
COc1ccc2c3c1O[C@H]1[C@@H](O)CC[C@H]4[C@@H](C2)N(C)CC[C@@]341 [Dihydrocodeine]	168.6	–
COc1ccc([C@@H]2Sc3ccccc3N(CCN(C)C)C(=O)[C@@H]2OC(C)=O)cc1 [Diltiazem]	197.8	–
CC(CCc1ccc(O)cc1)NCCc1ccc(O)c(O)c1 (centres undefined) [Dobutamine]	168.2	–
CCN1CC(CCN2CCOCC2)C(c2ccccc2)(c2ccccc2)C1=O (centres undefined) [Doxapram]	183.4	–
CN(C)CCC=C1c2ccccc2COc2ccccc21 [Doxepin]	164.3	–
CN1CCC[C@@H]1Cc1c[nH]c2ccc(CCS(=O)(=O)c3ccccc3)cc12 [Eletriptan]	186.1	–
N=C(N)Nc1nc(CSCCC(=N)NS(N)(=O)=O)cs1 [Famotidine]	165.9	–
O=C(NCC1CCCCN1)c1cc(OCC(F)(F)F)ccc1OCC(F)(F)F (centres undefined) [Flecainide]	192.2	–
OC(Cn1cncn1)(Cn1cncn1)c1ccc(F)cc1F [Fluconazole]	163.9	–
CCOC(=O)c1ncn2c1CN(C)C(=O)c1cc(F)ccc1-2 [Flumazenil]	165.8	–
CNCCC(Oc1ccc(C(F)(F)F)cc1)c1ccccc1 (centres undefined) [Fluoxetine]	176.5	–
COCCCC/C(=N\OCCN)c1ccc(C(F)(F)F)cc1 [Fluvoxamine]	177	–
COc1ccc(CC(C)NCC(O)c2ccc(O)c(NC=O)c2)cc1 (centres undefined) [Formoterol]	178.6	–

Structure (SMILES)	collision cross section (N2) [1] [Å²]	further results
O=C1CN=C(c2ccccc2)c2cc(Cl)ccc2N1CC(F)(F)F [Halazepam]	170.9	–
CC(=O)O[C@H]1C=C[C@H]2[C@H]3Cc4ccc(O)c5c4[C@@]2(CCN3C)[C@H]1O5 [Heroin-M 6-MAM]	175.1	–
C[C@]12CCC(=O)C=C1CC[C@@H]1[C@@H]2[C@@H](O)C[C@@]2(C)[C@H]1CC[C@]2(O)C(=O)CO [Hydrocortisone]	186.6	–
CN(C)CCCN1c2ccccc2CCc2ccccc21 [Imipramine]	166.5	–
CCCCn1cc(C(=O)c2cccc3ccccc23)c2ccccc21 [JWH-073]	182.5	–
CCN(CC)C(=O)[C@@H]1C=C2c3cccc4[nH]cc(c34)C[C@H]2N(C)C1 [LSD]	179.5	–
c1ccc([C@H]2CN3CCSC3=N2)cc1 [Levamisole]	144.6	–
CNC[C@@H](C)CN1c2ccccc2Sc2ccc(OC)cc21 [Levomepromazine-M N-desmethyl]	174.3	–
CCN(CC)CC(=O)Nc1c(C)cccc1C [Lidocaine]	157.7	–
CN(C)C(=O)C(CCN1CCC(O)(c2ccc(Cl)cc2)CC1)(c1ccccc1)c1ccccc1 [Loperamide]	222.7	–
CN1C(=O)C(O)N=C(c2ccccc2Cl)c2cc(Cl)ccc21 (centres undefined) [Lormetazepam]	169.5	–
CCCCc1nc(Cl)c(CO)n1Cc1ccc(-c2ccccc2-c2nn[nH]n2)cc1 [Losartan]	200.3	–
CCCCC/C=C\C/C=C\C/C=C\C/C=C\CCCCCC(=O)OC[C@H](COP(=O)(O)OC[C@H](N)C(=O)O)OC(=O)CCCCCCCCC/C=C\CCCCCCCCCC [PS(44:05)]	–	collision cross section (N2) ([2]; [M+2Na-H]+): 306.87 Å²
CC/C=C\C/C=C\C/C=C\C/C=C\C/C=C\C/C=C\CCC(=O)O[C@H](COC(=O)CCCCCCCCC/C=C\CCCCCCCCCC)COP(=O)(O)OC[C@H](N)C(=O)O [PS(44:07)]	–	collision cross section (N2) ([2]; [M+2Na-H]+): 303.11 Å²
CCCCCCCCCCCCC=CC[C@@H](O)[C@H](COP(=O)([O-])OCC[N+](C)(C)C)NC(=O)CCCCCCCCCCCCCCC [SM(34:01)]	–	collision cross section (N2) ([2]; [M+Cl]-): 284.26 Å²; collision cross section (N2) ([2]; [M+HCOO]-): 284.66 Å²; collision cross section (N2) ([2]; [M+H]+): 280.06 Å²; collision cross section (N2) ([2]; [M+Na]+): 278.77 Å²
CCCCCCCCCCCCC=CC[C@@H](O)[C@H](COP(=O)([O-])OCC[N+](C)(C)C)NC(=O)CCCCCCCCCCCCCCCCC [SM(36:01)]	–	collision cross section (N2) ([2]; [M+Cl]-): 288.69 Å²; collision cross section (N2) ([2]; [M+HCOO]-): 290.34 Å²; collision cross section (N2) ([2]; [M+H]+): 286.24 Å²; collision cross section (N2) ([2]; [M+K]+): 288.38 Å²; collision cross section (N2) ([2]; [M+Na-H2O]+): 280.09 Å²; collision cross section (N2) ([2]; [M+Na]+): 285.86 Å²
CCCCCCCCCCCCC=CC[C@@H](O)[C@H](COP(=O)([O-])OCC[N+](C)(C)C)NC(=O)CC=CCCCCCCCCCCCCCCCCCC [SM(40:02)]	–	collision cross section (N2) ([2]; [M+Cl]-): 299.55 Å²; collision cross section (N2) ([2]; [M+HCOO]-): 299.75 Å²; collision cross section (N2) ([2]; [M+H]+): 295.66 Å²; collision cross section (N2) ([2]; [M+Na]+): 292.53 Å²
CCCCCCCCCCCCCCCCCCCCCCCC(=O)N[C@@H](COP(=O)([O-])OCC[N+](C)(C)C)[C@H](O)CCCCCCCCCCCCCCC [SM(42:00)]	–	collision cross section (N2) ([2]; [M+HCOO]-): 308.73 Å²; collision cross section (N2) ([2]; [M+H]+): 305.33 Å²
CCCCCCCCCCCCC=CC[C@@H](O)[C@H](COP(=O)([O-])OCC[N+](C)(C)C)NC(=O)CC=CCCCCCCCCCCCCCCCCCCCCCC [SM(44:02)]	–	collision cross section (N2) ([2]; [M+H]+): 307.52 Å²; collision cross section (N2) ([2]; [M+Na]+): 306.5 Å²
